Key:
[1] = Compatibility (clarity) of acrylic copolymer coating in Petri dish, Example 114; assay type: physicochemical; settings: coating of Example 112; oven 65 C thirty minutes; 2% by weight stabilizer
Procedure: The hindered amine test stabilizers are incorporated into a coating system as described in Example 112. A 9.5-10 gram sample of each of the liquid coatings is added to a 100 mm×15 mm Petri dish and is placed in an oven at 65 C for thirty minutes. The samples are taken out of the oven, allowed to cool, and are visually observed for clarity over time. The development of opacity or haziness is indicative of an incompatibility between the hindered amine stabilizer and the formulated coating.

[2] = Compatibility (clarity) in two component water-borne polyurethane coating, jar, Example 113; assay type: physicochemical; settings: 2% by weight stabilizer, with UVA; haziness = incompatibility
Procedure: Formulation Reference: Bayer Corp., 2K Waterborne Clear, Notebook #820894-A, Technical Brochure.
(§1) The following components are mixed together under good agitation:
This solution is added to a 4 ounce clear glass jar containing 15.56 parts of Bayhydur XP-7165 and 3.91 parts of Exxate 700 under vigorous agitation and is agitated for 10 minutes. The lid is placed securely on the jar. The solidified coating samples are visually observed for clarity over time. The development of opacity or haziness is indicative of an incompatibility between the hindered amine stabilizer and the formulated coating.

[3] = Compatibility (clarity) in water borne urethane/acrylic copolymer coating, Example 101; assay type: physicochemical; settings: 2% by weight stabilizer; haziness = incompatibility
Procedure: Formulation Reference: NeoResins, Inc., Formulation WB-2010, Technical Brochure, August, 2000.
as §1
This solution is added to a 4 ounce clear glass jar containing 72.85 parts of NeoPac R-9699 under vigorous agitation and agitated for 10 minutes. Optionally, a defoamer, like Dehydran 1620 (Henkel), and a flash rusting agent, like Heiscore XAB (Cas Chem), are added. The lid is placed securely on the jar. The solidified coatings are visually observed for clarity after solidification. The development of opacity or haziness is indicative of an incompatibility between the hindered amine stabilizer and the formulated coating.

[4] = Compatibility (clarity) of polyurethane coating in Petri dish, Example 115; assay type: physicochemical; settings: coating of Example 113; oven 75 C 120 minutes; 2% by weight stabilizer
Procedure: The hindered amine test stabilizers are incorporated into a coating system as described in Example 113. A 9.5-10 gram sample of each of the liquid coatings is added to a 100 mm×15 mm Petri dish and is placed in an oven at 75 C for 120 minutes. The samples are taken out of the oven, allowed to cool, and are visually observed for clarity over time. The development of opacity or haziness is indicative of an incompatibility between the hindered amine stabilizer and the formulated coating.

[5] = Compatibility (clarity) in alkali-soluble water-borne acrylic copolymer coating, liquid in jar, Example 112; assay type: physicochemical; settings: 2% by weight stabilizer; haziness = incompatibility
Procedure: Formulation Reference: NeoResins, Inc., Formulation WB-2065, Technical Brochure.
as §1
This solution is added to a 4 ounce clear glass jar containing 54.14 parts of NeoCryl BT-520 and 0.43 parts of Instant Stabilizer under vigorous agitation and is agitated for 10 minutes. The lid is placed securely on the jar. The liquid coating samples are visually observed for clarity over time. The development of opacity or haziness is indicative of an incompatibility between the hindered amine stabilizer and the formulated coating.

[6] = Ink jet media light fastness, magenta, Example 32; settings: 100% print density; office fluorescent lighting; 650-700 mg/m2
Procedure: (§2) A resin-coated paper impregnated with inorganic adsorbent particles (Konica QP Photoglossy ink jet paper, Konica Corp.) is purchased. On the ink-receiving layer, a 0.8 wt % methanol solution of the instant compounds is applied in an amount to achieve 650-700 mg/m^2, unless otherwise stated. The paper is allowed to dry under ambient temperature and pressure for 24 hours. Separately, test patterns (magenta) are printed on the treated sheets using a Hewlett Packard DeskJet 970 Cxi printer at 100% print density. The obtained prints are left to dry at ambient temperature and pressure for 24 hours. Color densities and CIEL*a*b coordinates before and after exposure are measured using X-Rite 938 Spectrodensitometer. Exposures are carried out using normal office fluorescent lighting.

[7] = Ink jet media light fastness, cyan, Example 34; settings: 50% print density; office fluorescent lighting; 650-700 mg/m2
Procedure: as §2, with “(cyan)” for “(magenta)”, “50%” for “100%”

[8] = Ink jet media light fastness, cyan, Example 31; settings: 100% print density; office fluorescent lighting; 650-700 mg/m2
Procedure: as §2, with “(cyan)” for “(magenta)”

[9] = Ink jet media light fastness, yellow, Example 33; settings: 50% print density as printed, office fluorescent lighting, 650-700 mg/m2
Procedure: as §2, with “stated otherwise.” for “otherwise stated.”, “(yellow)” for “(magenta)”, “50%” for “100%”

[10] = Ink jet media light fastness, yellow, Example 36; settings: 50% print density, office fluorescent lighting, 650-700 mg/m2
Procedure: as §2, with “stated otherwise.” for “otherwise stated.”, “(yellow)” for “(magenta)”, “50%” for “100%”

[11] = Solubility in water; assay type: physicochemical; settings: stirred 30 minutes
Procedure: The solubility of the instant compounds is evaluated in polar solvent systems. The instant compounds are added to water, stirred for 30 minutes, and sampled for analysis. Samples containing bis(1-octyloxy-2,2,6,6-tetramethylpiperidin-4-yl)sebacate and 4-hydroxy-1-(2-hydroxy-2-methylpropoxy)-2,2,6,6-tetramethylpiperidine are filtered to remove any undissolved residue and all samples are analyzed by high pressure liquid chromatography or gas chromatography.

[12] = Solubility in 50% butyl cellusolve / 50% water; assay type: physicochemical; settings: 50% butyl cellusolve / 50% water by weight; stirred 30 minutes
Procedure: The solubility of the instant compounds is evaluated in polar solvent systems. A solution of 50% butyl cellusolve by weight and 50% water by weight is prepared. The instant compounds are added to this solution stirred for 30 minutes, and sampled for analysis. Samples containing bis(1-octyloxy-2,2,6,6-tetramethylpiperidin-4-yl)sebacate and 4-hydroxy-1-(2-hydroxy-2-methylpropoxy)-2,2,6,6-tetramethylpiperidine are filtered to remove any undissolved residue and all samples are analyzed by high pressure liquid chromatography or gas chromatography.

[13] = Solubility in 50% butyl carbitol / 50% water; assay type: physicochemical; settings: 50% butyl carbitol / 50% water by weight; stirred 30 minutes
Procedure: The solubility of the instant compounds is evaluated in polar solvent systems. A solution of 50% butyl carbitol by weight and 50% water by weight is prepared. The instant compounds are added to this solution, stirred for 30 minutes, and sampled for analysis. Samples containing bis(1-octyloxy-2,2,6,6-tetramethylpiperidin-4-yl)sebacate and 4-hydroxy-1-(2-hydroxy-2-methylpropoxy)-2,2,6,6-tetramethylpiperidine are filtered to remove any undissolved residue and all samples are analyzed by high pressure liquid chromatography or gas chromatography.

[14] = Solubility in 25% butyl cellusolve / 75% water; assay type: physicochemical; settings: 25% butyl cellusolve / 75% water by weight; stirred 30 minutes
Procedure: The solubility of the instant compounds is evaluated in polar solvent systems. A solution of 25% butyl cellusolve by weight and 75% water by weight is prepared. The instant compounds are added to this solution, stirred for 30 minutes, and sampled for analysis. Samples containing bis[…] and 4-hydroxy-1-(2-hydroxy-2-methylpropoxy)-2,2,6,6-tetramethylpiperidine are filtered to remove any undissolved residue and all samples are analyzed by high pressure liquid chromatography or gas chromatography.

Which results are given for CCCCCCCCON1C(C)(C)CC(OC(=O)CCCCCCCCC(=O)OC2CC(C)(C)N(OCCCCCCCC)C(C)(C)C2)CC1(C)C [B]?
Solidified coating in Petri Dish, clarity, 0 [1]: hazy; Solidified coating in Petri Dish, clarity, 1 Month [1]: hazy; Solidified coating in Petri Dish, clarity, Day 1 [1]: hazy; Solidified coating in jar, clarity, 0 [2]: hazy; Solidified coating in jar, clarity, 1 Month [2]: hazy; Solidified coating in jar, clarity, Day 1 [2]: hazy; Solidified coating in jar, clarity, 0 days [3]: hazy; Solidified coating in jar, clarity, 1 days [3]: hazy; Solidified coating in jar, clarity, 19 days [3]: hazy; Solidified coating in Petri Dish, clarity, 0 [4]: hazy; Solidified coating in Petri Dish, clarity, 1 Month [4]: hazy; Solidified coating in Petri Dish, clarity, Day 1 [4]: hazy; Liquid coating in jar, clarity, 0 [5]: hazy; Liquid coating in jar, clarity, 1 Month [5]: hazy; Liquid coating in jar, clarity, Day 1 [5]: hazy

With CC(C)(O)CON1C(C)(C)CC(NCCO)CC1(C)C [Example 1] as the compound, how does the “DE for magenta after 4 weeks” value [6] read?
Its value is 20.23.

What about the “DE for cyan after 4 weeks” value [7] of the same compound?
The value was 5.29.

And the “DE for cyan after 4 weeks” value [8]?
Its value is 4.21.

For CC(C)(O)CON1C(C)(C)CC(=NO)CC1(C)C [Example 2], which “DE for yellow after 4 weeks” value [9] is on record?
Its value is 3.87.

What about the “DE for cyan after 4 weeks” value [7] of the same compound?
Its value is 5.53.

What about the “DE for yellow after 4 weeks” value [10] of the same compound?
The value was 1.36.

What about the “DE for cyan after 4 weeks” value [8] of the same compound?
Its value is 4.69.

Which “Solubility (% by weight)” value [11] does the source give for CC(C)(O)CON1C(C)(C)CC(NCC(=O)[O-])CC1(C)C.[K+] [Example 10] here?
The value was “≧8 % by weight”.

And the “Solubility (% by weight)” value [12]?
The value was “≧20 % by weight”.

What about the “Solubility (% by weight)” value [13] of the same compound?
The value was “≧20 % by weight”.

And the “Solubility (% by weight)” value [14]?
The value was “≧18 % by weight”.

What does the source list for CCCCN(c1nc(Nc2ccc(Cl)c(C(=O)O)c2)nc(N(CCCC)C2CC(C)(C)N(OC3CCCCC3)C(C)(C)C2)n1)C1CC(C)(C)N(OC2CCCCC2)C(C)(C)C1 [G]?
Solidified coating in jar, clarity, 0 days [3]: clear; Solidified coating in jar, clarity, 1 days [3]: clear; Solidified coating in jar, clarity, 19 days [3]: clear

With CCCCCCCCON1C(C)(C)CC(OC(=O)CCCCCCCCC(=O)OC2CC(C)(C)N(OCCCCCCCC)C(C)(C)C2)CC1(C)C [HALS A, bis(1-octyloxy-2,2,6,6-tetramethylpiperidin-4-yl) sebacate, reference compound] as the compound, how does the “Solubility (% by weight)” value [11] read?
Its value is less than 0.1 % by weight.

What about the “Solubility (% by weight)” value [12] of the same compound?
The value was 0.7 % by weight.

And the “Solubility (% by weight)” value [13]?
The value was 0.2 % by weight.

What about the “Solubility (% by weight)” value [14] of the same compound?
The value was less than 0.1 % by weight.

For CC(C)(O)CON1C(C)(C)CC(O)CC1(C)C [HALS B, 4-hydroxy-1-(2-hydroxy-2-methylpropoxy)-2,2,6,6-tetramethylpiperidine, reference compound], which “Solubility (% by weight)” value [11] is on record?
Its value is 1.4 % by weight.

And the “Solubility (% by weight)” value [12]?
The value was 15.5 % by weight.

And the “Solubility (% by weight)” value [13]?
The value was 13.4 % by weight.

And the “Solubility (% by weight)” value [14]?
The value was 13.6 % by weight.

For CCCCN(c1nc(Nc2ccc(S(=O)(=O)O)cc2)nc(N(CCCC)C2CC(C)(C)N(OC3CCCCC3)C(C)(C)C2)n1)C1CC(C)(C)N(OC2CCCCC2)C(C)(C)C1.Cl [H], which “Solidified coating in jar, clarity, 0 days” value [3] is on record?
Its value is “clear”.

What about the “Solidified coating in jar, clarity, 1 days” value [3] of the same compound?
The value was “clear”.

What about the “Solidified coating in jar, clarity, 19 days” value [3] of the same compound?
The value was “clear”.

What does the source list for CC(=O)O.CCCCN(c1nc(NCCNCCNCCN)nc(N(CCCC)C2CC(C)(C)N(OC3CCCCC3)C(C)(C)C2)n1)C1CC(C)(C)N(OC2CCCCC2)C(C)(C)C1 [I]?
Solidified coating in jar, clarity, 0 days [3]: clear; Solidified coating in jar, clarity, 1 days [3]: clear; Solidified coating in jar, clarity, 19 days [3]: clear

What does the source list for CCCCN(c1nc(NCCN2CCNCC2)nc(N(CCCC)C2CC(C)(C)N(OC3CCCCC3)C(C)(C)C2)n1)C1CC(C)(C)N(OC2CCCCC2)C(C)(C)C1.Cl [J]?
Solidified coating in jar, clarity, 0 days [3]: clear; Solidified coating in jar, clarity, 1 days [3]: clear; Solidified coating in jar, clarity, 19 days [3]: clear

Which “Solidified coating in jar, clarity, 0 days” value [3] does the source give for CON1C(C)(C)CC(NCCOCCOCCNC2CC(C)(C)N(OC)C(C)(C)C2)CC1(C)C [L] here?
The value was “clear”.

And the “Solidified coating in jar, clarity, 1 days” value [3]?
Its value is “clear”.

What about the “Solidified coating in jar, clarity, 19 days” value [3] of the same compound?
Its value is “clear”.
